Assay results published in the supplement of paper PMC5908809.

Key:
NK-YS (IL-2 2.5 ng/mL) [1] = experiment: percent inhibition of viability; higher = more inhibition; settings: 72 h
SNK-6 (IL-2 2.5 ng/mL) [2] = experiment: as above; settings: 72 h
IMC-1 (IL-2 20 ng/mL) [3] = experiment: as above; settings: 72 h
DERL-7 (IL-2 2.5 ng/mL) [4] = experiment: as above; settings: 72 h
KHYG-1 (IL-2 2.5 ng/mL) [5] = experiment: as above; settings: 72 h
[6] = system: normal primary NK cells, pool 1 (3 donors) (IL-2 2.5 ng/mL); experiment: as above; settings: 72 h
KAI3 (IL-2 2.5 ng/mL) [7] = experiment: as above; settings: 72 h
[8] = system: normal primary NK cells, pool 1 (3 donors), resting (IL-2 0 ng/mL); experiment: as above; settings: 72 h
[9] = system: normal primary NK cells, pool 2 (3 donors) (IL-2 2.5 ng/mL); experiment: as above; settings: 72 h
NK-92 (IL-2 2.5 ng/mL) [10] = experiment: as above; settings: 72 h
NKL (IL-2 2.5 ng/mL) [11] = experiment: as above; settings: 72 h
YT (IL-2 2.5 ng/mL) [12] = experiment: as above; settings: 72 h
[13] = system: normal primary NK cells, pool 3 (3 donors) (IL-2 2.5 ng/mL); experiment: as above; settings: 72 h
[14] = system: normal NK cells expanded with K562-aAPC; experiment: as above; settings: 72 h, IL-2 2.5 ng/mL
Procedure: (§1)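 Drug sensitivity and resistance testing on K562-aAPC-expanded normal NK cells: 5 concentrations (10-fold steps over a 10,000-fold range), 72 h at 37 °C, viability by CellTiter-Glo normalised to DMSO and benzethonium chloride controls; DSS from the fitted curve.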

NK-YS (IL-2 2.5 ng/mL) [15] = experiment: drug sensitivity score (DSS) (DSS units); higher = more sensitive; extreme values may be limits of the assay; settings: 72 h
SNK-6 (IL-2 2.5 ng/mL) [16] = experiment: as above; settings: 72 h
IMC-1 (IL-2 20 ng/mL) [17] = experiment: as above; settings: 72 h
DERL-7 (IL-2 2.5 ng/mL) [18] = experiment: as above; settings: 72 h
KHYG-1 (IL-2 2.5 ng/mL) [19] = experiment: as above; settings: 72 h
[20] = system: normal primary NK cells, pool 1 (3 donors) (IL-2 2.5 ng/mL); experiment: as above; settings: 72 h
KAI3 (IL-2 2.5 ng/mL) [21] = experiment: as above; settings: 72 h
[22] = system: normal primary NK cells, pool 1 (3 donors), resting (IL-2 0 ng/mL); experiment: as above; settings: 72 h
[23] = system: normal primary NK cells, pool 2 (3 donors) (IL-2 2.5 ng/mL); experiment: as above; settings: 72 h
NK-92 (IL-2 2.5 ng/mL) [24] = experiment: as above; settings: 72 h
NKL (IL-2 2.5 ng/mL) [25] = experiment: as above; settings: 72 h
YT (IL-2 2.5 ng/mL) [26] = experiment: as above; settings: 72 h
[27] = system: normal primary NK cells, pool 3 (3 donors) (IL-2 2.5 ng/mL); experiment: as above; settings: 72 h
[28] = system: normal NK cells expanded with K562-aAPC; experiment: as above; settings: 72 h; IL-2 2.5 ng/mL
Procedure: as §1

O=[N+]([O-])c1ccc2c(c1)S(=O)(=O)C=C2 [Stattic] (max concentration tested 50000 nM)
percent inhibition of viability [%]
Settings | 5 nM | 50 nM | 500 nM | 5000 nM | 50000 nM
DERL-7 (IL-2 2.5 ng/mL) [4] | -5.69 | 0.09 | 8.66 | 100 | 100
IMC-1 (IL-2 20 ng/mL) [3] | -3.55 | -2.13 | -12.2 | -14.1 | 99.9
KAI3 (IL-2 2.5 ng/mL) [7] | -6.42 | 3 | 11.7 | 101 | 100
KHYG-1 (IL-2 2.5 ng/mL) [5] | -5.88 | -5.42 | -4.14 | 99.4 | 99.5
NK-92 (IL-2 2.5 ng/mL) [10] | -16.4 | -10.7 | -9.15 | 100 | 99.3
NK-YS (IL-2 2.5 ng/mL) [1] | -2.31 | -3.08 | -1.75 | 31.7 | 98.3
NKL (IL-2 2.5 ng/mL) [11] | -2.42 | -9.08 | -17.6 | 52.9 | 97.8
SNK-6 (IL-2 2.5 ng/mL) [2] | 4.25 | -11.5 | -24.7 | 100 | 100
YT (IL-2 2.5 ng/mL) [12] | -7.41 | -5.02 | -6.62 | 99.5 | 99.9
[6] | -14.2 | -14 | 11.9 | 98.5 | 100
[8] | -24.1 | -39.5 | 15.7 | 93.9 | 100
[9] | -5.68 | 1.61 | 1.47 | 96.5 | 99.9
[13] | -6.16 | -7.86 | -9.75 | 99.1 | 101
[14] | -4.23 | -7.77 | -7.3 | 100 | 100

Settings | drug sensitivity score
DERL-7 (IL-2 2.5 ng/mL) [18] | 19.4
IMC-1 (IL-2 20 ng/mL) [17] | 4.71
KAI3 (IL-2 2.5 ng/mL) [21] | 19.9
KHYG-1 (IL-2 2.5 ng/mL) [19] | 17.5
NK-92 (IL-2 2.5 ng/mL) [24] | 17.3
NK-YS (IL-2 2.5 ng/mL) [15] | 9.96
NKL (IL-2 2.5 ng/mL) [25] | 11.8
SNK-6 (IL-2 2.5 ng/mL) [16] | 16.6
YT (IL-2 2.5 ng/mL) [26] | 17.3
[20] | 19.9
[22] | 19.4
[23] | 17.7
[27] | 17.1
[28] | 17.4
